Data on 41 sequences can be found in paper PMC11714206, “Massively Parallel Screening of Toll/Interleukin‐1 Receptor (TIR)‐Derived Peptides Reveals Multiple Toll‐Like Receptors (TLRs)‐Targeting Immunomodulatory Peptides” (Advanced Science, 2024).

In this assay the target is T1, MAL^TIR (Homo sapiens, UniProt P58753).
T1 construct: MAL (residues 79–221); 6xHis; made in house; host or cells: E. coli BL21 (DE3)
Kind of assay: T‐Surf phage library (P8 and P3) selection against MAL^TIR, four rounds, NGS read counts. In kind it is binding. The note with it: for P3_MAL Rank (after) / P3_MAL Rank (before): P3 library; for P8_MAL Rank (after) / P8_MAL Rank (before): P8 library; for Population: P8_MAL pool: P8 T-Surf phage library, 4th round of selection against MAL TIR, share of NGS reads. The essentials:
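Coat TIR domain 5 µg mL^−1 overnight; block 0.2% BSA/PBS 1 h, 4 °C; add phage library 1 h, RT; wash ×4 PBS/0.5% Tween‐20; elute 100 mM HCl, neutralize Tris; amplify in TG1, PEG‐precipitate. Repeat to round 4; barcode PCR, NovaSeq, count reads.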

Where [1] appears, read: selection against MAL, rank by count after grouping.
Where [2] appears, read: selection against MAL, rank by count before grouping.
The mark [3] stands for this setting: 4R selection against MAL, rank after grouping.
Where [4] appears, read: 4R selection against MAL, rank before grouping.
Where [5] appears, read: selection against MAL TIR, rank by count after grouping.
Setting [6] is: selection against MAL TIR, rank by count before grouping.
The mark [7] stands for this setting: P8_MAL: rank by count after grouping.
Where [8] appears, read: P8_MAL: rank by count before grouping.
The mark [9] stands for this setting: selection against MAL, rank after grouping.
[10] abbreviates: selection against MAL, rank before grouping.

“And” between values parts separate entries of the source, which are not always exact repeats. Identical values can stand only once.

T1 sequence (P58753 79-221): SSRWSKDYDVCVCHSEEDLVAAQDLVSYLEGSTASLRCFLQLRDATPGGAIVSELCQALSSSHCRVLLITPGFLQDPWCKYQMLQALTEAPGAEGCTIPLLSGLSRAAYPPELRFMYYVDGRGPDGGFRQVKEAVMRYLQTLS

As for SSFRVGLCRLMALIQQ, the “P3_MAL Rank (after)” value under setting [1] came to 685. Under setting [2], the “P3_MAL Rank (before)” value was determined as 3125.

Turning to SSFSEGLWRRLELSKK, under setting [3], the “P3_MAL Rank (after)” value stood at 594. Further, under setting [4], the “P3_MAL Rank (before)” value is 3202.

With SSFTSHLYDRLQRSGI, the “P3_MAL Rank (after)” value under setting [5] is reported as 224. Under setting [6], the “P3_MAL Rank (before)” value is recorded as 3203.

As for SSLREGLLRLQELSKK, under setting [1], the “P3_MAL Rank (after)” value is reported as 713. Besides, under setting [2], the “P3_MAL Rank (before)” value was 3205.

Turning to SSLREVLWRLLELSKK, where the note is “P3_MAL: rank by count after grouping”, the “Rank (after)” value stood at 178. The “Rank (before)” value (P3_MAL: rank by count before grouping) worked out at 3204.

Turning to SSWWILKELQEILNYQ, the “P8_MAL Rank (after)” value under setting [5] was found to be 279. The “P8_MAL Rank (before)” value under setting [6] stood at 2529.

TFFSQQLNTVVHTAIL: the “P8_MAL Rank (after)” value under setting [1] worked out at 697. Under setting [2], the “P8_MAL Rank (before)” value is reported as 2542.

As to TFHSHLYNALVQAGIH, under setting [1], the “P8_MAL Rank (after)” value is reported as 678. Besides, under setting [2], the “P8_MAL Rank (before)” value stood at 2634.

With TFLAICIMRWCRRAF, the “Rank (after)” value under setting [7] was determined as 99. Under setting [8], the “Rank (before)” value turned out to be 718.

For TFLATLYNALAQAGIH, under setting [7], the “Rank (after)” value is recorded as 449. Under setting [8], the “Rank (before)” value worked out at 2620.

Take TFLCHLYSTLVQARIH: the “Rank (after)” value under setting [7] stood at 402. For the same sequence, under setting [8], the “Rank (before)” value worked out at 2546.

For the sequence TFLCHQYNALVQAGIH, the “P8_MAL Rank (after)” value under setting [5] is 219. Also, the “P8_MAL Rank (before)” value under setting [6] was 2547.

On to TFLDRLYNPLVHAGIH, for which, under setting [7], the “Rank (after)” value stood at 400. In addition, the “Rank (before)” value under setting [8] is 2621.

In the case of TFLDTLLNKLAQAAIH, the “Rank (after)” value under setting [7] is reported as 470. Besides, the “Rank (before)” value under setting [8] is recorded as 2626.

TFLGAQHKTVVRAATH: the “P8_MAL Rank (after)” value under setting [9] is given as 524. The “P8_MAL Rank (before)” value under setting [10] is listed as 2534.

In the case of TFLGFLYIALVQAGFL, the “P8_MAL Rank (after)” value under setting [1] amounted to 724. For the same sequence, the “P8_MAL Rank (before)” value under setting [2] is on record as 2549.

For TFLGHLHNALVQAGNH, the “Rank (after)” value under setting [7] was determined as 432. Besides, under setting [8], the “Rank (before)” value was determined as 2608.

Regarding TFLGHLLNALVQTDIL, the “P8_MAL Rank (after)” value under setting [9] came to 508. Under setting [10], the “P8_MAL Rank (before)” value was 2607.

On to TFLGHLSNGLVQAGIH, for which the “Rank (after)” value under setting [7] worked out at 478. Further, the “Rank (before)” value under setting [8] is 2556.

Consider TFLGHLYIALVQTGIH, for which, under setting [5], the “P8_MAL Rank (after)” value was 261. Under setting [6], the “P8_MAL Rank (before)” value turned out to be 2558.

For the sequence TFLGHLYIAMVQAAIH, the “P8_MAL Rank (after)” value under setting [9] worked out at 528. The “P8_MAL Rank (before)” value under setting [10] was determined as 2559.

On to TFLGHLYMRWCRRAF, for which the “P8_MAL Rank (after)” value under setting [3] was 625. The “P8_MAL Rank (before)” value under setting [4] is recorded as 2560.

In the case of TFLGHLYNALLQPGIH, under setting [7], the “Rank (after)” value is on record as 181. Besides, the “Rank (before)” value under setting [8] was determined as 2616.

On to TFLGHLYNALLRSDGR, for which the “P8_MAL Rank (after)” value under setting [3] is 654. In addition, the “P8_MAL Rank (before)” value under setting [4] amounted to 2590.

For TFLGHLYNALVQAAF, the “Rank (after)” value under setting [7] is recorded as 453. The “Rank (before)” value under setting [8] is 2584.

With TFLGHLYNALVQAGI, under setting [9], the “P8_MAL Rank (after)” value is 498. Further, the “P8_MAL Rank (before)” value under setting [10] is given as 2582.

With TFLGHLYNALVQAGIH, the Population was 0.00463% and 0.00432% and 0.00402%.

Take TFLGHLYNALVQAGIP: the Population was 0.00463%.

Consider TFLGHLYNALVQAGIRAFL, for which, under setting [3], the “P8_MAL Rank (after)” value was 588. For the same sequence, the “P8_MAL Rank (before)” value under setting [4] worked out at 2579.

Consider TFLGHLYNALVQAGKL, for which the “P8_MAL Rank (after)” value under setting [5] is 230. Further, under setting [6], the “P8_MAL Rank (before)” value was 2583.

In the case of TFLGHLYNALVQTGIP, the “Rank (after)” value under setting [7] is reported as 112. In addition, under setting [8], the “Rank (before)” value is 2569.

Turning to TFLGHLYNMLIQAGIH, the “Rank (after)” value under setting [7] is on record as 393. Besides, the “Rank (before)” value under setting [8] stood at 2595.

Take TFLGHLYNSLVQAGTH: the “P8_MAL Rank (after)” value under setting [3] is 633. Also, the “P8_MAL Rank (before)” value under setting [4] was found to be 2563.

TFLGHLYNTLVHAGTH: the “Rank (after)” value under setting [7] was determined as 397. Moreover, under setting [8], the “Rank (before)” value is recorded as 2600.

On to TFLGHLYNTLVQACIH, for which the “P8_MAL Rank (after)” value under setting [3] amounted to 650. Also, under setting [4], the “P8_MAL Rank (before)” value was found to be 2598.

Turning to TFLGHLYNTLVQASIF, under setting [7], the “Rank (after)” value is 391. Besides, the “Rank (before)” value under setting [8] was 2537.

For the sequence TFLGHLYNTLVQPAIH, under setting [3], the “P8_MAL Rank (after)” value amounted to 620. In addition, the “P8_MAL Rank (before)” value under setting [4] is 2596.

On to TFLGHLYSALVHAGIH, for which the “Rank (after)” value under setting [7] came out at 479. In addition, the “Rank (before)” value under setting [8] is on record as 2561.

With TFLGNLYNALVKAGIH, under setting [7], the “Rank (after)” value is recorded as 135. Moreover, the “Rank (before)” value under setting [8] amounted to 2614.

As to TFLGNLYNPLVQAGLH, under setting [9], the “P8_MAL Rank (after)” value came to 521. In addition, the “P8_MAL Rank (before)” value under setting [10] amounted to 2615.

Take TFLGPLLNALVQAGIH: the “Rank (after)” value under setting [7] is 388. Also, under setting [8], the “Rank (before)” value is recorded as 2536.
